Measurements as given in patent US20080194585A1, “Fungicidal Pyrazine Derivatives” (priority 2005, published 2008).
Marks after values point to notes of the source that are not given here.

Experiments:
Conditions in all cases: 40 ppm (marked *); 100 = 100% disease control, 0 = no control
Phytophthora infestans = experiment: whole plant or invertebrate; type: in vivo
fusarium graminearium = experiment: Test I: wheat head scab, preventive spray on wheat seedlings
Description: (the causal agent of wheat head scab) and incubated in a saturated atmosphere at 20° C. for 72 h, and then moved to a growth chamber at 22° C. for 5 days, after which disease ratings were made.

Sclerotinia sclerotiorum = experiment: Test C: cucumber white mold, preventive spray on cucumber seedlings
[1] = test system: Colletotrichum orbiculare; experiment: Test B: cucumber Colletotrichum anthracnose, preventive spray on cucumber seedlings
Botrytis cinerea = experiment: Test E: tomato botrytis, preventive spray on tomato seedlings
Plasmopara viticola = experiment: Test D: grape downy mildew, spray after inoculation of grape seedlings; type: in vivo
From the text: Upon removal, disease ratings were made. […] A dash (-) indicates no test results.

Septoria nodorum = experiment: Test H: wheat glum blotch, preventive spray on wheat seedlings
Description: (the causal agent of wheat glum blotch) and incubated in a saturated atmosphere at 20° C. for 48 h, and then moved to a growth chamber at 22° C. for 5 days, after which disease ratings were made.

Septoria tritici = experiment: Test J: wheat leaf blotch, preventive spray on wheat seedlings; type: in vivo
From the text: A dash (-) indicates no test results.

[2] = test system: Puccinia recondita f. sp. tritici; experiment: Test K: wheat leaf rust, preventive spray on wheat seedlings
Rhizoctonia oryzae = experiment: Test G: turf brown patch, preventive spray on creeping bent grass seedlings
Description: (the causal agent of turf brown patch) and incubated in a saturated atmosphere at 27° C. for 24 h, and then moved to a growth chamber at 27° C. for 5 days, after which disease ratings were made.

[3] = test system: Erysiphe graminis f. sp. tritici; experiment: Test L: wheat powdery mildew, preventive spray on wheat seedlings
Pythium aphanidermatum = experiment: Test A: bluegrass pythium blight, preventive spray on bluegrass seedlings

| Structure (SMILES) | Test F disease control rating (Phytophthora infestans) | Test I disease control rating (fusarium graminearium) | Test C disease control rating (Sclerotinia sclerotiorum) | Test B disease control rating [1] | Test E disease control rating (Botrytis cinerea) | Test D disease control rating (Plasmopara viticola) | Test H disease control rating (Septoria nodorum) | Test J disease control rating (Septoria tritici) | Test K disease control rating [2] | Test G disease control rating (Rhizoctonia oryzae) | Test L disease control rating [3] | Test A disease control rating (Pythium aphanidermatum) |
| --- | --- | --- | --- | --- | --- | --- | --- | --- | --- | --- | --- | --- |
| O=c1c(-n2cccn2)nc(Cl)c(-c2c(F)cccc2F)n1Cc1cccc(Cl)c1 [compound 275] | 0* % | 0* % | 0* % | 47* % | 100* % | 0* % | 99* % | 100* % | 97* % | 0* % | 61* % | 0* % |
| O=c1c(-n2cncn2)nc(Cl)c(-c2c(F)cccc2F)n1Cc1cccc(Cl)c1 [compound 276] | 0* % | 0* % | 0* % | 0* % | 98* % | 0* % | 78* % | 100* % | 94* % | 0* % | 0* % | 0* % |
| N#Cc1nc(Cl)c(-c2c(F)cccc2F)n(Cc2cccc(Cl)c2)c1=O [compound 277] | 0* % | 0* % | 0* % | 0* % | 0* % | 0* % | 0* % | 63* % | 41* % | 0* % | 0* % | 0* % |
| Cc1ccn(-c2nc(Cl)c(-c3c(F)cccc3F)n(-c3ccccc3)c2=O)n1 [compound 278] | 0* % | 0* % | 0* % | 88* % | 100* % | 31* % | 100* % | 100* % | 100* % | 92* % | 99* % | 0* % |
| Cc1ccn(-c2nc(Cl)c(-c3c(F)cccc3F)n(Cc3ccccc3)c2=O)n1 [compound 279] | 0* % | 0* % | 0* % | 78* % | 99* % | 0* % | 98* % | 100* % | 100* % | 41* % | 99* % | 0* % |
| Cc1ccn(-c2nc(Cl)c(-c3c(F)cccc3F)n(Cc3ccccc3F)c2=O)n1 [compound 280] | 0* % | 0* % | 0* % | 57* % | 99* % | 0* % | 96* % | 100* % | 98* % | 0* % | 69* % | 0* % |
| CC[C@H](C)Cn1c(-c2ccc(F)cc2Cl)c(Br)nc(-n2cccn2)c1=O [compound 281] | 0* % | 0* % | 0* % | 100* % | 100* % | 0* % | 100* % | 100* % | 100* % | 47* % | 100* % | 0* % |
| CC[C@H](C)Cn1c(-c2ccc(F)cc2Cl)c(Br)nc(-n2ccc(C)n2)c1=O [compound 282] | 0* % | 0* % | 0* % | 100* % | 100* % | 0* % | 99* % | 100* % | 100* % | 0* % | 100* % | 0* % |
